Read-outs that look alike come from different tables or passages of the source.
How the values were obtained:
Experiment in all cases: radiometric enzymatic assay
Assay type in all cases: biochemical
[1] = molecular target: T1, CK1γ1 (Homo sapiens, UniProt Q9HCP0); conditions: read-out: Enzymatic IC50 CK1γ1
[2] = molecular target: T2, CK1γ2 (Homo sapiens, UniProt P78368); conditions: read-out: Enzymatic IC50 CK1γ2
[3] = molecular target: T2, CK1γ2; conditions: read-out: Enzymatic IC50 CK1γ2; remark: listed apart in the source
[4] = molecular target: T1, CK1γ1; conditions: read-out: Enzymatic IC50 CK1γ1; remark: listed apart in the source
[5] = molecular target: T2, CK1γ2; conditions: read-out: Enzymatic IC50 CK1γ2; remark: listed apart in the source
[6] = molecular target: T1, CK1γ1; conditions: read-out: Enzymatic IC50 CK1γ1; remark: listed apart in the source
[7] = molecular target: T2, CK1γ2; conditions: read-out: Enzymatic IC50 CK1γ2; remark: listed apart in the source
[8] = molecular target: T1, CK1γ1; conditions: read-out: NB IC50 CK1γ3

T1 sequence (Q9HCP0 whole entry): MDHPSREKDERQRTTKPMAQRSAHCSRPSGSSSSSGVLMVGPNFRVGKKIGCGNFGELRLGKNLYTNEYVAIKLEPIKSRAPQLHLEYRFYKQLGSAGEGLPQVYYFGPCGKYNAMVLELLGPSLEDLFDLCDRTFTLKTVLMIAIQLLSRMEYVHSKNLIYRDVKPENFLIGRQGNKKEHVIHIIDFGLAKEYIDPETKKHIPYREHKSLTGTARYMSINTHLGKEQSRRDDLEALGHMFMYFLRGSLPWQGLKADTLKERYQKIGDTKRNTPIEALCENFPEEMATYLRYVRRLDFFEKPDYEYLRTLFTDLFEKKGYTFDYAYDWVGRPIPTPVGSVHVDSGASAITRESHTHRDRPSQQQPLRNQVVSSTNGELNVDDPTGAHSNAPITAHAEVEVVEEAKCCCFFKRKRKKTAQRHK
T2 sequence (P78368 whole entry): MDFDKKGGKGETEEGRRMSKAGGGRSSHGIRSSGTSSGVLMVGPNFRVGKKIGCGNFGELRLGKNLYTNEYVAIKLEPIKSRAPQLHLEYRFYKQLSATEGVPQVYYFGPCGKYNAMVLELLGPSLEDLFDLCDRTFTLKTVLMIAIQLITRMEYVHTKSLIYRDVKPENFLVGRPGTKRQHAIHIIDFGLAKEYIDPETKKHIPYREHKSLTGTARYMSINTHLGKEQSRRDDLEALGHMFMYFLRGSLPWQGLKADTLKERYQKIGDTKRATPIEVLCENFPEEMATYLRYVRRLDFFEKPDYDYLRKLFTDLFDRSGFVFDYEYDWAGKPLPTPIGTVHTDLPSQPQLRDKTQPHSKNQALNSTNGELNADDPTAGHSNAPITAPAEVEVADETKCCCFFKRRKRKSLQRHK

Work on N#Cc1ccc2nc(Nc3ccc(N4CCOCC4)c(Cl)c3)[nH]c2c1 [compound 14, 2-((3-chloro-4-morpholinophenyl)amino)-1H-benzo[d]imidazole-6-carbonitrile] yielded an IC50 [1] of 28 nM and an IC50 [2] of 7 nM.

For N#Cc1ccc2nc(Nc3ccc(N4CCOCC4)c(Br)c3)[nH]c2c1 [compound 15, 2-((3-bromo-4-morpholinophenyl)amino)-1H-benzo[d]imidazole-6-carbonitrile], the IC50 [3] was 10 nM and the IC50 [4] was 40 nM.

CN1CCN(c2ccc(Nc3nc4ccc(C#N)cc4[nH]3)cc2Cl)CC1 [compound 21, 2-((3-chloro-4-(4-methylpiperazin-1-yl)phenyl)amino)-1H-benzo[d]imidazole-6-carbonitrile] gave an IC50 [5] of 14 nM and an IC50 [6] of 36 nM.

With N#Cc1ccc2[nH]c(Nc3ccc(N4CCCCC4)c(Cl)c3)nc2c1 [compound 20, 2-((3-chloro-4-(piperidin-1-yl)phenyl)amino)-1H-benzo[d]imidazole-5-carbonitrile] the IC50 [7] was 9 nM and the IC50 [8] was 30 nM.

Source: PMC12458359 (bioRxiv, 2025)
